From patent publication US20190183961A1, “GLUTAMINE FOR PRESERVING, IMPROVING OR RESTORING KIDNEY FUNCTION” (Fresenius Kabi Deutschland GmbH, priority 2016, published 2019)
Like-named read-outs stand apart in the source and are kept apart here. Peptide text beside a SMILES is read from it.

System: 5/6 kidney nephrectomised rat model
Format: in vivo
Conditions: for incidence of chronic progressive nephropathy (animals affected/animals examined) / effect on incidence/occurrence of chronic progressive nephropathy (in words): 9 days; for incidence of chronic progressive nephropathy (animals affected/animals examined): 5/6 nephrectomised rats; for effect on incidence/occurrence of chronic progressive nephropathy (in words): continuous i.v. infusion, all doses, versus nephrectomised control; for changes in blood levels of biomarkers for kidney and liver injury / treatment-related clinical signs / tolerability of intravenous infusion: rat, in vivo
Procedure: The effect of L-glutamine (administered in form of L-alanyl-L-glutamine; Dipeptiven™) following daily continuous intravenous infusion was examined in a 5/6 kidney nephrectomised rat model.
L-alanyl-L-glutamine was administered for 9 consecutive days. The effects attributable to L-glutamine (provided in form of alanyl-glutamine; Dipeptiven™) were determined by comparison to an L-alanine infusion.
To prevent protein overdose, the protein content of the animal food was adapted according to the L-alanyl-L-glutamine or L-alanine dose administered intravenously.
The study was conducted according to the following design:
Group 1 and 2 animals (control) received the vehicle (0.9% NaCl).
Groups 5 and 6 received Dipeptiven™ without any dilution, i.e. L-alanyl-L-glutamine in a concentration of 200 mg/ml.
Group 3 and 4 animals received diluted Dipeptiven™, i.e. L-alanyl-L-glutamine in a concentration of 13.33 and 80 mg/ml respectively.
Group 7 and 8 animals received L-alanine in a concentration of 32 and 80 mg/ml respectively.
All animals in groups 1 and 3 to 8 underwent a 5/6 nephrectomy. All animals in group 2 were “sham operated”, meaning the abdomen was opened and closed in the surgery, but the kidneys were not excised and remained in the body.
During the acclimatisation period, a polyurethane catheter was implanted into the posterior vena cava via the left femoral vein. Following implantation, the animals were maintained on continuous infusion with physiological saline prior to the start of treatment.
Morbidity/mortality checks were performed at least twice daily. Clinical observations were performed daily. A full clinical examination was performed daily. Individual body weights were recorded three times a week. Food consumption was measured three times a week for each cage of animals, including one measurement during the acclimatisation period. Clinical laboratory determinations were performed on selected animals on days −1 and on days 1 to 10. Animals were sampled for amino acid determination on days 1, 4, 7 and 10. Animals were fasted before blood sampling performed on day 10.
All animals were killed at the end of the treatment period (day 10) and necropsied. Organ/tissue samples were fixed and preserved at necropsy for all animals. Selected organs/tissues from all animals were examined histopathologically. In addition, selected organs/tissues from all animals were used for amino acid determination.

[1] = 3.0 g/kg/day continuous i.v. infusion, 9% protein in diet
[2] = groups 4 and 8: 3.0 g/kg/day, 9% protein in diet, control 60%

Structure (SMILES)	incidence of chronic progressive nephropathy (animals affected/animals examined) (1.2 g/kg/day continuous i.v. infusion, 10.8% protein in diet)	incidence of chronic progressive nephropathy (animals affected/animals examined) [1]	effect on incidence/occurrence of chronic progressive nephropathy (in words)	occurrence of chronic progressive nephropathy, percent of animals [2]	changes in blood levels of biomarkers for kidney and liver injury	treatment-related clinical signs	tolerability of intravenous infusion	incidence of chronic progressive nephropathy (animals affected/animals examined) (0.5 g/kg/day continuous i.v. infusion, 12% protein in diet)	incidence of chronic progressive nephropathy (animals affected/animals examined) (7.5 g/kg/day continuous i.v. infusion, 4.5% protein in diet)	incidence of chronic progressive nephropathy (animals affected/animals examined) (7.5 g/kg/day continuous i.v. infusion, 12% protein in diet (amino acid overload))	incidence of chronic progressive nephropathy (animals affected/animals examined) (7.5 g/kg/day continuous i.v. infusion, 12% protein in diet (amino acid overload), listed as L-alanyl-L-glutamine)	occurrence of chronic progressive nephropathy, percent of animals (group 3: 0.5 g/kg/day, 12% protein in diet, control 60%)	occurrence of chronic progressive nephropathy, percent of animals (group 5: 7.5 g/kg/day, 4.5% protein in diet, control 60%)	occurrence of chronic progressive nephropathy, percent of animals (group 6: 7.5 g/kg/day, 12% protein in diet (amino acid overload))
C[C@H](N)C(=O)O [Ala, L-alanine]	4/5	3/5	did not	60%	No treatment-related	No treatment-related clinical signs	overall well tolerated							
C[C@H](N)C(=O)N[C@@H](CCC(N)=O)C(=O)O [Ala-Gln, L-alanyl-L-glutamine] (H-Ala-Gln-OH)		0/5	decreased incidence of chronic progressive nephropathy	0%	No treatment-related	No treatment-related clinical signs	overall well tolerated	2/5	0/5	1/5	2/5	40%	0%	
NC(=O)CC[C@H](N)C(=O)O [L-glutamine]			reduces the occurrence of chronic progressive nephropathy in a dose-dependent manner											20%
